{
  "source": "patent US8735624B2",
  "about": "“Polymorphic form of CHDMAPP, method of preparation thereof, and pharmaceutical composition comprising same” (Innate Pharma, priority 2008, dated 2014)",
  "key": {"[1]": {"test": "pKa of the acidic functions", "format": "physicochemical", "source_text": "Each of these acidic functions can be coupled with a cation. Therefore, three stoichiometries of sodium salts of CHDMAPP may be prepared: A monosodium salt, a disodium salt and a trisodium salt."}, "[2]": {"test": "stability of CHDMAPP in solution in water", "format": "physicochemical", "conditions": "in solution in water at 5% in weight, 55° C.", "source_text": "The crystalline phase thus provides a dramatic improvement of the stability and of the storage capabilities of the drug product."}, "γδ T cells": {"test_system": "γδ T cells", "conditions": "activator of γδ T cells; times higher than BrHPP; cited from earlier work"}, "[3]": {"test": "DVS hygroscopicity and moisture measurements", "format": "physicochemical", "conditions": "result in words", "protocol": "Moisture sorption isotherms of the crystalline phases were obtained by using a DVS-1 automated water sorption analyzer (Surface Measurements Systems, Alperton, Middlesex, United Kingdom). The reference material was an empty glass pan and the total gas flow was 200 sccm.min^−1 (Standard Cubic Centimeters per minute). Temperature of analysis was 20° C. For each measurement, precisely ca. 15 mg of the sample were weighed in a glass pan beforehand allowed for the tare, then placed in the analyzer.\nAs a first stage, dry nitrogen (0% R.H) was applied until constant weight of the sample in order to eliminate adsorbed or absorbed water (potential dehydration). Then, mass variations were recorded while R.H. was increased by steps of 10% R.H. The automated analyzer was allowed to start the following step as soon as the mass variation of the sample was less than 5.10^−4 mg.min^−1. The upper limit was adjusted below the deliquescence of the compound and never exceeded 90% R.H.\nDVSWin (v 2.18) was used as control and data collection software whereas data processing was performed by using DVS Standard Analysis Suite (v 4.3).\nFurther parameters used in DVS procedures are as follows:\nProtocole Dynamic Vapor Sorption/Appareil ‘Surface Measurements Systems)=\nAutomated Water Sorption Analyzer’/model: DVS−1\nAnalysis method: • step mode, • Temperature: 20° C. • step dm/dt<0.0005 (mg/min) • First stage R.H.=0% • Last Stage R.H.=90% • Minimum Stage: 20 min • Maximum Stage: 120 min • Total Gas Flow: 200 • Nitrogen: 200 Bars, H2O<3 ppm, O2<2 ppm, Réf. Nitrogen N50 B50*0 Software—data collection and data processing: • DVSWin v2.18 (control software), • DVS Standard Analysis Suite v4.3 (analysis software).]"}, "[4]": {"test": "solid phase stability on storage (XRPD)", "format": "physicochemical", "conditions": "for crystalline structure after storage (XRPD): stored 3 months at 40° C., 75% RH", "protocol": "X-Ray Powder Diffraction measurements were carried out by using a SIEMENS D5005 diffractometer (Bruker analytical X-Ray Systems, D-76187 Karlsruhe, Germany) with a Bragg Brentano geometry, in theta-theta reflection mode. The instrument is equipped with a X-Ray tube (copper anticathode, 40 kV, 30 mA, Kα1 radiation: 1.5406 Å, Kα2 radiation: 1.5444 Å), a nickel filter and a scintillation detector. The diffraction patterns were collected by steps of 0.04° (2-theta) over the angular range 3°-30°, with a counting time of 4 s per step. No internal standard was used but a sample of quartz was analyzed as an external standard. The temperature of the sample was either the room temperature or accurately monitored when heating was required. DIFFRAC PLUS Edit Job software (v. 2.00) was used as control software and data processing was performed by using the Eva software (v. 9.0 and v. 10.0)."}, "TG/DSC thermal stability": {"test": "TG/DSC thermal stability", "format": "physicochemical", "conditions": "TGA-DSC", "protocol": "The stability range was assessed using Differential Scanning calorimetry (DSC), using a Netzsch STA 449C apparatus, as is described in detail hereinafter, and having a standard deviation of ±0.5° C. The person skilled in the art will appreciate that alternative readings of the melting point may result from the use of other types of DSC equipment and/or the use of other system under conditions different to those described below.\nTG/DSC measurements were carried out by using a NETZSCH STA 449C Jupiter Thermogravimetric Analyzer (NETZSCH, D-95100 Selb, Germany) equipped with a low temperature furnace. The purge gas used was helium (gas flow=50 mL/min) and the reference material was an empty aluminum pan without cap. The samples were weighed in open aluminum pans, and then placed in the analyzer. The analyses were performed within various temperature ranges using a 2°.min^−1 heating rate. PROTEUS software was used for the acquisition and data processing (v. 4.7.0)."}, "[5]": {"test": "ICH stability testing (chemical purity by HPAEC)", "format": "physicochemical", "conditions": "closed glass vials", "protocol": "The chemical purity of phosphoesters (including the isomeric purity for geometric isomers) is determined using High Performance Anion-Exchange Chromatography (HPAEC) with suppressed conductivity detection. The HPAEC device comprises a DIONEX DX600 system (DIONEX Corporation, Sunnyvale Calif., USA) connected to computer loaded with DIONEX Chromeleon® chromatography software. A DIONEX CD25 conductivity detector is used with an anion self regenerating suppressor (ASRS®-ultra II-4 mm), which is set to either auto-suppression mode or external water mode. The HPAEC column used is a DIONEX Ion Pac® AS11 column (4×250 mm) equipped with an AG11 guard column (4×50 mm). In this procedure, phosphoesters are eluted (as anionic form) from the anion exchange column with a sodium or potassium hydroxide step gradient.\nStability tests of CHDMAPP-Na2,1H2O have been conducted according to ICH guideline Q7a, Section 19.11, under various storage conditions: 5° C., and 25° C./60% RH, both in closed glass vials. Purity has been assessed at regular time intervals (t0, 1, 3, 6 and 9 months) by HPAEC using a Dionex Ion Pac AS11, 4.0×250 mm column and a Dionex Ion Pac AG11, […] and by eluting with a gradient of water and NaOH solution."}},
  "data": [
    {"molecule": "C/C(=C\\CCP(=O)(O)OP(=O)(O)O)CO", "note": "[CHDMAPP, (2E)-1-hydroxy-2-methylpent-2-enyl-pyrophosphonate]", "values": [
      {"measurement": "pKa of the weak acidic function", "setting": "[1]; one function, weak pKa", "result": 7.1},
      {"measurement": "pKa of the two strong acidic functions", "setting": "[1]; two functions, strong pKa", "result": 2.1},
      {"measurement": "half-life", "setting": "[2]", "result": 2.6, "unit": "days"},
      {"measurement": "in vitro activity relative to BrHPP (Phosphostim)", "setting": "γδ T cells", "result": "approximately 100 times"}
    ]},
    {"molecule": "C/C(=C\\CCP(=O)([O-])OP(=O)(O)O)CO.C/C(=C\\CCP(=O)([O-])OP(=O)(O)O)CO.[Na+].[Na+]", "note": "[CHDMAPP-Na2,0H2O, anhydrous (2E)-1-hydroxy-2-methylpent-2-enyl-pyrophosphonate disodium]", "values": [
      {"measurement": "hygroscopicity", "setting": "[3]", "result": "hygroscopic"},
      {"measurement": "hygroscopicity", "setting": "[3]; listed as anhydrous salt", "result": "somewhat hygroscopic"},
      {"measurement": "crystalline structure after storage (XRPD)", "setting": "[4]", "result": "completely modified"}
    ]},
    {"molecule": "C/C(=C\\CCP(=O)(O)OP(=O)(O)O)CO", "note": "[CHDMAPP-Na2,1H2O, (2E)-1-hydroxy-2-methylpent-2-enyl-pyrophosphonate disodium monohydrate]", "values": [
      {"measurement": "hygroscopicity", "setting": "[3]", "result": "great non-hygroscopicity"},
      {"measurement": "temperature up to which compound is stable (onset of endothermic dehydration peak)", "setting": "TG/DSC thermal stability; listed as monohydrate disodium salt", "result": 115, "unit": "°C"},
      {"measurement": "temperature up to which compound is stable (onset of endothermic dehydration peak)", "setting": "TG/DSC thermal stability; disodium monohydrate", "result": 115.7, "unit": "°C"},
      {"measurement": "Purity", "setting": "[5]; storage 5° C., 1 month", "result": 99.1, "unit": "%"},
      {"measurement": "Purity", "setting": "[5]; storage 5° C., 3 months", "result": 99.2, "unit": "%"},
      {"measurement": "Purity", "setting": "[5]; storage 5° C., 6 months", "result": 98.8, "unit": "%"},
      {"measurement": "Purity", "setting": "[5]; storage 5° C., 9 months", "result": 98.9, "unit": "%"},
      {"measurement": "Purity", "setting": "[5]; storage 5° C., t 0", "result": 99.3, "unit": "%"},
      {"measurement": "Purity", "setting": "[5]; storage 25° C./60% R.H., 1 month", "result": 99.2, "unit": "%"},
      {"measurement": "Purity", "setting": "[5]; storage 25° C./60% R.H., 3 months", "result": 99.1, "unit": "%"},
      {"measurement": "Purity", "setting": "[5]; storage 25° C./60% R.H., 6 months", "result": 98.7, "unit": "%"},
      {"measurement": "Purity", "setting": "[5]; storage 25° C./60% R.H., 9 months", "result": 98.9, "unit": "%"},
      {"measurement": "Purity", "setting": "[5]; storage 25° C./60% R.H., t 0", "result": 99.3, "unit": "%"},
      {"measurement": "spontaneous phase transformation on storage", "setting": "[4]; after more than 6 months, 25° C., 60% RH", "result": "does not observe any spontaneous phase transformation"},
      {"measurement": "crystalline structure after storage (XRPD)", "setting": "[4]", "result": "has not been modified"}
    ]},
    {"molecule": "CC(=CCCP(=O)([O-])OP(=O)([O-])[O-])CO.[Na+].[Na+].[Na+]", "note": "[trisodium]", "values": [
      {"measurement": "hygroscopicity", "setting": "[3]", "result": "very hygroscopic solid"}
    ]}
  ]
}
